According to patent publication US11667645B2, “Granzyme B directed imaging and therapy” (CytoSite Biopharma Inc., priority 2018, dated 2023):

Molecular target: Granzyme B (human lymphocytes) (Homo sapiens (Human), UniProt P10144)
Assay: human Granzyme B biochemical assay
Conditions: Granzyme B (human lymphocytes) 5 nM, substrate Ac-IETD-AFC 200 μM, Cpd incubation with enzyme 30 mins, 22° C., read time 60 mins; read-out: IC50
From the text: The compounds of Formula I-VIII described above can be tested using the human Granzyme B biochemical assay provided below.
Materials: • 1. Granzyme B (human lymphocytes) Enzyme: Enzo Lifesciences, Cat #ALX-200-602-0010 • 2. Substrate (Ac-IETD-AFC): Enzo Lifesciences, Cat #ALX-260-110-M010 • 3. Standard inhibitor (Compound 20-Isomer3): Synthesized internally in TCG • 4. Dimethyl sulfoxide (DMSO): Sigma-Aldrich, Cat #41639 • 5. HEPES: Gibco, Cat #15630-080 • 6. Calcium chloride: Sigma-Aldrich, Cat #C-5080 • 7. Distilled water: Gibco, Cat #15230-162 • 8. Bovine serum albumin (BSA): Sigma-Aldrich, Cat #A3059 • 9. Black, clear bottom PDL plate (384 wells): Greiner bio-one, Cat #781946 • 10. Polypropylene plate (384 wells): Corning, Cat #3657 Assay Buffer Composition:
Compound Preparation: • 1. DMSO is added to the respective compound vial to make 10 mM Compound stock solution, which is stored at −20° C. • 2. 10 mM Compound stock solution is thawed and 1 mM DMSO stock solution is prepared by adding 45 μl of DMSO to 5 μl of 10 mM compound stock solution. • 3. 1 mM DMSO stock solution is serially diluted (3.16 fold) by adding 10 μl of 1 mM DMSO stock to 21.6 μl of DMSO and mixed well. 10 μl of the resulting solution is then added to 21.6 μl of DMSO and mixed well. This process is continued to create 11 dilution points for the assay standard inhibitor and 8 dilution points for test compounds in 384 well polypropylene plate. • 4. 2 μl of each dilution are dispensed in assay ready plate. • 5. Each well is then diluted 25 fold by adding 48 μl of assay buffer to 2 μl of compound in assay ready plate to make Compound working stock. Enzyme Preparation: • 1. Supplied Granzyme B (human lymphocytes) enzyme is reconstituted to 1 mg/ml (about 31.25 μM) and 1 μl aliquots are kept in −80° C. • 2. 1 μl aliquot is diluted to 625 nM by adding 49 μl of assay buffer containing 0.1% BSA and gently mixed. • 3. 10 nM enzyme working stock is prepared by adding assay buffer containing 0.1% BSA. Substrate Preparation: • 1. Supplied substrate (Ac-IETD-AFC) is reconstituted by adding DMSO to make 10 mM stock, aliquoted and stored in −80° C. • 2. 4 mM substrate mid stock is prepared by adding DMSO. • 3. Substrate working stock i.e. 800 μM is prepared by adding assay buffer. Assay Protocol: • 1. 10 μl of serially diluted Compound working stock (start dose 40 μM) is added from assay ready plate to assay plate according to the plate map. • 2. Positive control (40 μM of standard inhibitor) and negative control (4% DMSO buffer) are added to the respective wells. • 3. 20 μl of Enzyme working stock is added to assay plate and gently mixed. • 4. The plate is incubated at 22° C. for 30 mins and spun at 130 g for 1 minute. • 5. After incubation, 10 μl of Substrate working stock is added to respective wells and mixed (Assay plate is maintained in dark after substrate addition). • 6. The plate is incubated at 22° C. for 60 mins and spun at 130 g for 1 minute. • 7. Fluorescence read (RFU) (Ex: 400 nm/Em: 505 nm) is taken after 60 mins in EnVision Multimode plate reader. Final Assay Concentration:
Data Analysis: • 1. The RFU read is analyzed to calculate percent inhibition by normalizing with positive and negative controls taken as 100% and 0% effect respectively in Microsoft excel. • 2. Graph is generated by putting the analyzed data in GraphPad prism 5.0 software to get IC50 value for each compound.

Sequence of Granzyme B (human lymphocytes) (P10144 21-247): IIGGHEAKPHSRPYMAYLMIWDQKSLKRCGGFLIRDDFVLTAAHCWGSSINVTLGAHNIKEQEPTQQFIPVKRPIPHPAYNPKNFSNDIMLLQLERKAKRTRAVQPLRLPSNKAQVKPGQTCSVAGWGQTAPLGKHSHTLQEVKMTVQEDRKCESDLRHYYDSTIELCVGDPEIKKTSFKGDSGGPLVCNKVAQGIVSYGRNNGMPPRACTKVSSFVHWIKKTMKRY

| SMILES | IC50 |
| --- | --- |
| CC(=O)N[C@H](C(=O)N[C@H]1CCc2cccc3c2N(C1=O)[C@H](C(=O)NCc1c[nH]nn1)C3)c1ccccc1 [Compound C031, (2S,5S)-5-((S)-2-Acetylamino-2-phenyl-acetylamino)-4-oxo-1,2,4,5,6,7-hexahydro-azepino[3,2,1-hi]indole-2-carboxylic acid (1H-[1,2,3]triazol-4-ylmethyl)-amide] | 1000 to 5000 nM |
| CC(=O)N[C@@H](Cc1ccc(O)cc1)C(=O)N[C@H]1CCc2cccc3c2N(C1=O)[C@H](C(=O)NCc1c[nH]nn1)C3 [Compound C032, (2S,5S)-5-[(S)-2-Acetylamino-3-(4-hydroxy-phenyl)-propionylamino]-4-oxo-1,2,4,5,6,7-hexahydro-azepino[3,2,1-hi]indole-2-carboxylic acid(1H-[1,2,3]triazol-4-ylmethyl)amide] | 1000 to 5000 nM |
| CC(=O)N[C@@H](Cc1ccc(F)cc1)C(=O)N[C@H]1CCc2cccc3c2N(C1=O)[C@H](C(=O)NCc1c[nH]nn1)C3 [Compound C033, (2S,5S)-5-[(S)-2-Acetylamino-3-(4-fluoro-phenyl)-propionylamino]-4-oxo-1,2,4,5,6,7-hexahydro-azepino[3,2,1-hi]indole-2-carboxylic acid (1H-[1,2,3]triazol-4-ylmethyl)-amide] | 1000 to 5000 nM |
| O=C(CNC(=O)c1ccccc1)N[C@H]1CCc2cccc3c2N(C1=O)[C@H](C(=O)NCc1c[nH]nn1)C3 [Compound C034, (2S,5S)-5-(2-Benzoylamino-acetylamino)-4-oxo-1,2,4,5,6,7-hexahydro-azepino[3,2,1-hi]indole-2-carboxylic acid (1H-[1,2,3]triazol-4-ylmethyl)-amide] | > 5000 nM |
| C[C@H](NC(=O)c1ccccc1)C(=O)N[C@H]1CCc2cccc3c2N(C1=O)[C@H](C(=O)NCc1c[nH]nn1)C3 [Compound C035, (2S,5S)-5-((S)-2-Benzoylamino-propionylamino)-4-oxo-1,2,4,5,6,7-hexahydro-azepino[3,2,1-hi]indole-2-carboxylic acid (1H-[1,2,3]triazol-4-ylmethyl)-amide] | > 5000 nM |
| O=C(N[C@@H](Cc1ccccc1)C(=O)N[C@H]1CCc2cccc3c2N(C1=O)[C@H](C(=O)NCc1c[nH]nn1)C3)c1ccccc1 [Compound C037] | 1000 to 5000 nM |
| CC(C)C[C@H](NC(=O)c1ccccc1)C(=O)N[C@H]1CCc2cccc3c2N(C1=O)[C@H](C(=O)NCc1c[nH]nn1)C3 [Compound C038, (2S,5S)-5-((S)-2-Benzoylamino-4-methyl-pentanoylamino)-4-oxo-1,2,4,5,6,7-hexahydro-azepino[3,2,1-hi]indole-2-carboxylic acid (1H-[1,2,3]triazol-4-ylmethyl)-amide] | 301 to 1000 nM |
| O=C(N[C@@H](CO)C(=O)N[C@H]1CCc2cccc3c2N(C1=O)[C@H](C(=O)NCc1c[nH]nn1)C3)c1ccccc1 [Compound C040, (2S,5S)-5-((S)-2-Benzoylamino-3-hydroxy-propionylamino)-4-oxo-1,2,4,5,6,7-hexahydro-azepino[3,2,1-hi]indole-2-carboxylic acid (1H-[1,2,3]triazol-4-ylmethyl)-amide] | > 5000 nM |
| O=C(O)CC[C@H](NC(=O)c1ccccc1)C(=O)N[C@H]1CCc2cccc3c2N(C1=O)[C@H](C(=O)NCc1c[nH]nn1)C3 [Compound C041, (S)-4-Benzoylamino-4-{(2S,5S)-4-oxo-2-[(1H-[1,2,3]triazol-4-ylmethyl)-carbamoyl]-1,2,4,5,6,7-hexahydro-azepino[3,2,1-hi]indol-5-ylcarbamoyl}-butyric acid] | > 5000 nM |
| O=C(N[C@@H](Cc1ccc(O)cc1)C(=O)N[C@H]1CCc2cccc3c2N(C1=O)[C@H](C(=O)NCc1c[nH]nn1)C3)c1ccccc1 [Compound C042, (2S,5S)-5-[(S)-2-Benzoylamino-3-(4-hydroxy-phenyl)-propionylamino]-4-oxo,2,4,5,6,7-hexahydro-azepino[3,2,1-hi]indole-2-carboxylic acid (1H-[1,2,3]triazol-4-ylmethyl)-amide] | > 5000 nM |
| O=C(N[C@@H](Cc1ccc(F)cc1)C(=O)N[C@H]1CCc2cccc3c2N(C1=O)[C@H](C(=O)NCc1c[nH]nn1)C3)c1ccccc1 [Compound C043, (2S,5S)-5-[(S)-2-Benzoylamino-3-(4-fluoro-phenyl)-propionylamino]-4-oxo-1,2,4,5,6,7-hexahydro-azepino[3,2,1-hi]indole-2-carboxylic acid (1H-[1,2,3]triazol-4-ylmethyl)-amide] | > 5000 nM |
| CC(C)(NC(=O)Cc1csc2ccccc12)C(=O)N[C@H]1CCc2cccc3c2N(C1=O)[C@H](C(=O)NCc1c[nH]nn1)C3 [Compound C044, (2S,5S)-5-[2-(2-Benzo[b]thiophen-3-yl-acetylamino)-2-methyl-propionylamino]-4-oxo-1,2,4,5,6,7-hexahydro-azepino[3,2,1-hi]indole-2-carboxylic acid (1H-[1,2,3]triazol-4-ylmethyl)-amide] | > 5000 nM |
| CC[C@H](NC(=O)c1ccccc1)C(=O)N[C@H]1CCc2cccc3c2N(C1=O)[C@H](C(=O)NCc1c[nH]nn1)C3 [Compound C045, (2S,5S)-5-((S)-2-Benzoylamino-butyrylamino)-4-oxo-1,2,4,5,6,7-hexahydro-azepino[3,2,1-hi]indole-2-carboxylic acid (1H-[1,2,3]triazol-4ylmethyl)-amide] | 1000 to 5000 nM |
| CC(C)(C)[C@H](NC(=O)c1ccccc1)C(=O)N[C@H]1CCc2cccc3c2N(C1=O)[C@H](C(=O)NCc1c[nH]nn1)C3 [Compound C046, (2S,5S)-5-((S)-2-Benzoylamino-3,3-dimethyl-butyrylamino)-4-oxo-1,2,4,5,6,7-hexahydro-azepino[3,2,1-hi]indole-2-carboxylic acid (1H-[1,2,3]triazol-4-ylmethyl)-amide] | 301 to 1000 nM |
| CC(C)[C@H](NC(=O)c1ccc(F)cc1)C(=O)N[C@H]1CCc2cccc3c2N(C1=O)[C@H](C(=O)NCc1c[nH]nn1)C3 [Compound C047, (2S,5S)-5-[(S)-2-(4-Fluoro-benzoylamino)-3-methyl-butyrylamino]-4-oxo-1,2,4,5,6,7-hexahydro-azepino[3,2,1-hi]indole-2-carboxylic acid (1H-[1,2,3]triazol-4-ylmethyl)-amide] | 301 to 1000 nM |
| CC(C)[C@H](NC(=O)c1cccc(F)c1)C(=O)N[C@H]1CCc2cccc3c2N(C1=O)[C@H](C(=O)NCc1c[nH]nn1)C3 [Compound C048, (2S,5S)-5-[(S)-2-(3-Fluoro-benzoylamino)-3-methyl-butyrylamino]-4-oxo-1,2,4,5,6,7-hexahydro-azepino[3,2,1-hi]indole-2-carboxylic acid (1H-[1,2,3]triazol-4-ylmethyl)-amide] | 1 to 300 nM |
| CC(C)[C@H](NC(=O)c1ccccc1F)C(=O)N[C@H]1CCc2cccc3c2N(C1=O)[C@H](C(=O)NCc1c[nH]nn1)C3 [Compound C049, (2S,5S)-5-[(S)-2-(2-Fluoro-benzoylamino)-3-methyl-butyrylamino]-4-oxo-1,2,4,5,6,7-hexahydro-azepino[3,2,1-hi]indole-2-carboxylic acid (1H-[1,2,3]triazol-4-ylmethyl)-amide] | 301 to 1000 nM |
| Cc1ccccc1C(=O)N[C@H](C(=O)N[C@H]1CCc2cccc3c2N(C1=O)[C@H](C(=O)NCc1c[nH]nn1)C3)C(C)C [Compound C050, (2S,5S)-5-[(S)-3-Methyl-2-(2-methyl-benzoylamino)-butyrylamino]-4-oxo-1,2,4,5,6,7-hexahydro-azepino[3,2,1-hi]indole-2-carboxylic acid (1H-[1,2,3]triazol-4-ylmethyl)-amide] | 1 to 300 nM |
